Assay results: patent US9611248B2, “Chemical compounds” (Syngenta Participations AG, priority 2013, dated 2017)

Each compound was assayed on a variety of test species (assay: Post-emergence herbicidal activity). Settings: rate 1000 g/ha, evaluated after 13 days.
Type: in vivo
Parameters: key to ABUTH (Abutilon theophrasti) damage score / AMARE (Amaranthus retroflexus) damage score / ALOMY (Alopecurus myosuroides) damage score / ECHCG (Echinochloa crus-galli) damage score / ZEAMX (Zea mays) damage score / SOLNI (Solanum nigrum) damage score: 0 = no damage to plant, 5 = total damage to plant
How it was run: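 Damage on a 0–5 scale (5 = plant killed) was rated 13 days after treatment. Test species had been sown in standard soil and raised 8 days under glasshouse conditions of 24/16 °C, 14 h light, 65% humidity. They were then sprayed with aqueous solution from an acetone/water 50:50 formulation containing 0.5% Tween 20.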

| SMILES | ABUTH (Abutilon theophrasti) damage score | ALOMY (Alopecurus myosuroides) damage score | AMARE (Amaranthus retroflexus) damage score | ECHCG (Echinochloa crus-galli) damage score | SETFA (Setaria faberi) damage score | ZEAMX (Zea mays) damage score |
| --- | --- | --- | --- | --- | --- | --- |
| COC1=C(C)C(=O)N(c2cc(C(F)(F)F)c(-c3cc(F)c(F)c(F)c3)cn2)C1O (stereo not drawn) [AD126] | 5 | 3 | 5 | 3 | 5 | 1 |
| COC1=C(C)C(=O)N(c2cc(C(F)(F)F)c(C(C)=O)cn2)C1O (stereo not drawn) [AD2, 1-[5-acetyl-4-(trifluoromethyl)-2-pyridyl]-2-hydroxy-3-methoxy-4-methyl-2H-pyrrol-5-one] | 5 | 5 | 5 | 5 | 5 | 2 |
| COC1=C(C)C(=O)N(c2cc(C(F)(F)F)c(SC)cn2)C1O (stereo not drawn) [AD14, 2-hydroxy-3-methoxy-4-methyl-1-[5-methylsulfanyl-4-(trifluoromethyl)-2-pyridyl]-2H-pyrrol-5-one] | 5 | 3 | 4 | 5 | 5 | 1 |
| CC1=C(Cl)C(O)N(c2cc(C(C)(C)C)ccn2)C1=O (stereo not drawn) [AA44] | 1 | 1 | 3 | 1 | 2 | 1 |
| CCc1cc(N2C(=O)C(C)=C(OC)C2O)ncc1C=C(C)C (stereo not drawn) [AD71] | 4 | 2 | 5 | 3 | 5 | 2 |
| COC1=C(C)C(=O)N(c2cc(C(F)(F)F)c(OCCOC(C)(C)C)cn2)C1O (stereo not drawn) [AD80] | 4 | 3 | 5 | 4 | 5 | 1 |
| COC1=C(C)C(=O)N(c2cc(C(F)(F)F)c(/C(C)=C/C#N)cn2)C1O (stereo not drawn) [AD38, (E)-3-[6-(2-hydroxy-3-methoxy-4-methyl-5-oxo-2H-pyrrol-1-yl)-4-(trifluoromethyl)-3-pyridyl]but-2-enenitrile] | 5 | 5 | 5 | 5 | 5 | 0 |
| CCc1cc(N2C(=O)C(C)=C(OC)C2O)ncc1-c1ccc(F)cc1 (stereo not drawn) [AD62] | 4 | 3 | 5 | 3 | 5 | 0 |
| CCC1=C(Cl)C(O)N(c2cc(C(F)(F)F)ccn2)C1=O (stereo not drawn) [AA43] | 2 | 1 | 2 | 5 | 3 | 1 |
